According to article PMC6374920, “Synthesis and biological evaluation of 3-arylcoumarins as potential anti-Alzheimer's disease agents” (Journal of Enzyme Inhibition and Medicinal Chemistry, 2019):

Key:
BuChE from horse serum = BuChE from horse serum (Equus caballus, UniProt P81908); details: for IC50: read-out: IC50 value BuChE inhibitory activity, BuChE from horse serum, mean ± SD (n = 3)
Experimental: (§1) The anticholinesterase activity of the 3-arylcoumarin compounds was determined by the method of Ellman et al.[25] with slight modifications. AChE inhibitory activities were determined by AChE from electric eel (Macklin). BuChE inhibitory activities were determined by BuChE from horse serum (Aladdin). To a 10 ml tube, 2.65 ml of phosphate buffer solution (0.1 M, pH = 8.0), 100 µL of 5,5-dithiobis-2-nitrobenzoic acid (0.75 mM in 0.1 M phosphate buffer solution, pH = 8.0) were added sequentially, 50 µL AChE solution (0.2 U/mL in 0.1 M phosphate buffer solution, pH = 8.0), 100 µL of different concentrations of the sample solution, shaken well, and incubated at 37 °C for 5 min. Then 100 µL of substrate (1.5 mM in 0.1 M phosphate buffer solution, pH = 8.0) were added, shaken well, and incubated at 37 °C for 20 min. After the reaction was completed, 1 ml of sodium lauryl sulphate (4%, SDS in water) was added. […] Determination of the inhibitory activity of BuChE is similar. The sample blank group replaced the substrate with PBS, and the blank group replaced the sample solution with a solvent. The sample solution was set to five concentration gradients and the experiment was repeated three times. […] Cholinesterase inhibitory effect (%)=[A0−(A1−A2)]/A0×100% where A0 is the absorbance of blank group; A1 is the absorbance of sample group; A2 is the absorbance of sample blank group.

MAO-B = target: T1, MAO-B (Rattus norvegicus, UniProt P19643); assay: In vitro monoamine oxidase inhibitory activity (Holt method, crude enzyme from rat liver); assay type: biochemical; details: crude enzyme from Wistar rat liver; mean ± SD (n = 3)
T1 construct: The crude enzyme was extracted from the liver of 200–250 g of Wistar rats; from tissue; host or cells: Wistar rat liver, crude enzyme extract
T1 sequence (P19643 1-520): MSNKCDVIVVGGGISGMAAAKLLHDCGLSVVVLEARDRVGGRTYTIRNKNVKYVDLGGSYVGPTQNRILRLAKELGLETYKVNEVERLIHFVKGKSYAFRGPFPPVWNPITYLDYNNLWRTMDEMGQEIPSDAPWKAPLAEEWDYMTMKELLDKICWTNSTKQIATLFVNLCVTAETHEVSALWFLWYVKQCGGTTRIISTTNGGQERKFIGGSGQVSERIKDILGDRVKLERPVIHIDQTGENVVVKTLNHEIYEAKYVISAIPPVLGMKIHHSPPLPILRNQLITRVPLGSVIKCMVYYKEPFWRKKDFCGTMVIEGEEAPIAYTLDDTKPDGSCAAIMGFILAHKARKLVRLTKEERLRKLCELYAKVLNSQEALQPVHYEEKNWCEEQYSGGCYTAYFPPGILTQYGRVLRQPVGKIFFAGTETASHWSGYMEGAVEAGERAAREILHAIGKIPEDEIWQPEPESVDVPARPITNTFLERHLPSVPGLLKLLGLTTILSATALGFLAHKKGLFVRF
Experimental: The MAO inhibitory activity of the 3-arylcoumarin compounds was determined by the method of Holt et al.[26] with slight modifications. The crude enzyme was extracted from the liver of 200–250 g of Wistar rats according to literature methods. The crude enzyme protein content was determined by the Bradford/method using a Bradford Protein Assay Kit (Beyotime). Forty microlitres of enzyme solution and 40 µL of sample solution were added to a 96-well plate. The solution was then incubated at 37 °C for 20 min. One-twenty microlitres of the 4-(trifluoromethyl) benzylamine solution and 40 µL of the chromogenic agent (1 mmol/L vanillic acid, 0.5 mmol/L 4-aminoantipyrine, 4U/mL horseradish peroxidase, 0.2 M pH = 7.6 PBS constant volume) were added subsequently, and incubated at 37 °C for 90 min. The absorbance was measured at 490 nm using a microplate reader, and the inhibition rate of MAO and the IC50 value of each sample were calculated according to the formula. The control group replaced the sample solution with PBS (0.2 M, pH = 7.6), the positive control replaced the sample with the positive drug, and the blank group replaced the substrate with PBS, and each group was measured three times in parallel to average. Monoamineoxidase inhibitory effect (%)=[(AC−AB)−(AS−ASB)]/(AC−AB)×100% where AC is the absorbance of control group; AB is the absorbance of blank group; AS is the absorbance of sample group; ASB is the absorbance of sample blank group.
MAO plays an important role in neurotransmitter inactivation, and MAO dysfunction is considered to be the cause of many mental and neurological diseases. MAO plays an important role in AD pathology, and the progress of AD has a close correlation with MAO activity[35]^,[36]. All the synthesised compounds were evaluated for their MAO inhibitory activity in the way of Holt[26] by references. […] The MAO used in the experiment was self-made.

[1] = In vitro antioxidant activity, FRAP assay; details: FeSO4 as standard; mean ± SD (n = 3)
Experimental: The total antioxidant capacity of the 3-arylcoumarin compounds was measured by the FRAP (the Ferric Reducing Ability of Plasma) assay of Benzie et al.[29] with slight modifications. This method is based on the reduction of colourless Fe(III)-TPTZ(2,4,6-Tris(2-pyridyl)-s-triazine) complex to coloured Fe(II)-TPTZ complex by the compounds. FRAP working solution (300 mmol/L acetate buffer, 10 mmol/L TPTZ, 20 mmol/LFeCl3) was ready to use. A hundred microlitres of the sample solution was added to 3 ml of FRAP reagent and then incubated at 37 °C for 15 min. The experiments were repeated for three times. The absorbance was measured at 593 nm to clarify the changes. The standard curve was drawn with FeSO4 as standard material, and the regression equation was obtained. With 1.0 mmol/L FeSO4 as standard, the antioxidant activity of the sample is expressed in millimoles of […] required to achieve the same absorbance.

AChE from electric eel = AChE from electric eel (Electrophorus electricus, UniProt O42275); details: read-out: IC50 value AChE inhibitory activity, mean ± SD (n = 3)
Chain of AChE from electric eel (O42275 24-633): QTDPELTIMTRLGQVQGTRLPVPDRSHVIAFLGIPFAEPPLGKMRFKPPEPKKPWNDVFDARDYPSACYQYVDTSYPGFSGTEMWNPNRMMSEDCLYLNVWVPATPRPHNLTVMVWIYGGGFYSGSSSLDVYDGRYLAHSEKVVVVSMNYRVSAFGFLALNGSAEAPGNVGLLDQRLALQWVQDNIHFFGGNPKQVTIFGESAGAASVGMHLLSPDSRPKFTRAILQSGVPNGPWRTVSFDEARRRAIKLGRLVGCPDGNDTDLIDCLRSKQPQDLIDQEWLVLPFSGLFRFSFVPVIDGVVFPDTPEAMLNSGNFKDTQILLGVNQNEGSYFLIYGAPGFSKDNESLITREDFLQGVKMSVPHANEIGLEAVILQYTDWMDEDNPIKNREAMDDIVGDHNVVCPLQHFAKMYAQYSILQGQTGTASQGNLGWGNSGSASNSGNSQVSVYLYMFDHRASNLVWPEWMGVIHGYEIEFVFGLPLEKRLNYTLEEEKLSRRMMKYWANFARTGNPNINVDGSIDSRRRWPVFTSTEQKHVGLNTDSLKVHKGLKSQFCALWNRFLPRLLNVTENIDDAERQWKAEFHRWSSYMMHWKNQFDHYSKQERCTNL
Experimental: as §1

Chain of BuChE from horse serum (P81908 whole entry): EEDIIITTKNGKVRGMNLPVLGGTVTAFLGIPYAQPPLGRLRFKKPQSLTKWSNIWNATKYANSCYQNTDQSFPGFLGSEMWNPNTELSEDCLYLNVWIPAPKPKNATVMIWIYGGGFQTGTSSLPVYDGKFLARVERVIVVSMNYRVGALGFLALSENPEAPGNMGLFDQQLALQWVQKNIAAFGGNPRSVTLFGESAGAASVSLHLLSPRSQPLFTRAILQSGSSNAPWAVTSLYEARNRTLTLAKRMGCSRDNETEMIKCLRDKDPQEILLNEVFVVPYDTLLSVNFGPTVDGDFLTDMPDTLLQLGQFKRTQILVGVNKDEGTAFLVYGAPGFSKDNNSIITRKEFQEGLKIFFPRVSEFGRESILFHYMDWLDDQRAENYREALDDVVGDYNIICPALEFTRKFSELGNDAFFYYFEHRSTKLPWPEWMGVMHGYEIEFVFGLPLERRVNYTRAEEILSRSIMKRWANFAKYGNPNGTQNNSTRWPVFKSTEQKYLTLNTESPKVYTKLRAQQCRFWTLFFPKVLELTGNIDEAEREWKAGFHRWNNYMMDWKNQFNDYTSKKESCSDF

Question: Which “selectivity BuChE over AChE (in words)” value (BuChE from horse serum; BuChE vs AChE inhibition) does the source give for `O=c1oc2cc(O)ccc2cc1-c1ccccc1` [Compound 5] here?
Answer: Its value is “selective BuChE inhibitory activity”.

Question: And the IC50 (BuChE from horse serum)?
Answer: Its IC50 is 14.4 ± 1.94 µM.

Question: What about the IC50 (MAO-B) of the same compound?
Answer: The IC50 was greater than 700 µM.

Question: And the “FRAP value Antioxidant activity” value [1]?
Answer: Its value is 0.42 ± 0.01 mmol/g.

Question: Which results are given for `O=c1oc2ccccc2cc1-c1ccc(O)cc1` [Compound 1]?
Answer: IC50 (BuChE from horse serum): 44.8 ± 2.35 µM; IC50 (AChE from electric eel): 78.5 ± 2.84 µM; IC50 (MAO-B): > 700 µM; FRAP value Antioxidant activity [1]: 0.51 ± 0.09 mmol/g

Question: With `COc1ccc(-c2cc3ccc(O)cc3oc2=O)cc1` [Compound 9] as the compound, how does the IC50 (BuChE from horse serum) read?
Answer: The IC50 was 30.1 ± 3.06 µM.

Question: And the IC50 (MAO-B)?
Answer: Its IC50 is greater than 700 µM.

Question: And the “FRAP value Antioxidant activity” value [1]?
Answer: Its value is 0.67 ± 0.04 mmol/g.

Question: Which “FRAP value Antioxidant activity” value [1] does the source give for `O=C1O[C@H]([C@@H](O)CO)C(O)=C1O` [Ascorbic Acid, reference compound] here?
Answer: Its value is 3.79 ± 0.08 mmol/g.

Question: For `COc1ccc2cc(-c3ccc(O)cc3)c(=O)oc2c1` [Compound 13], which IC50 (BuChE from horse serum) is on record?
Answer: The IC50 was 70.7 ± 5.75 µM.

Question: And the IC50 (AChE from electric eel)?
Answer: The IC50 was 42.4 ± 3.16 µM.

Question: And the IC50 (MAO-B)?
Answer: Its IC50 is greater than 700 µM.

Question: What about the “FRAP value Antioxidant activity” value [1] of the same compound?
Answer: The value was 0.61 ± 0.11 mmol/g.

Question: Which results are given for `O=c1oc2cc(O)ccc2cc1-c1ccc(O)cc1` [Compound 4]?
Answer: IC50 (BuChE from horse serum): 34.7 ± 1.87 µM; IC50 (MAO-B): > 700 µM; FRAP value Antioxidant activity [1]: 7.73 ± 0.12 mmol/g
